Data set [1] has as its system rat. Particulars: Subchronic oral toxicity in rodents, wistar, Feed, dose end: 90 day, group: systemic, systemic / in life observation / body weight / body weight + systemic / in life observation / body weight / body weight gain + systemic / in….
For data set [2], the system named is rat. Particulars: Combined chronic toxicity/carcinogenicity; wistar; Oral; Feed; dose end: 104 week; group: systemic; systemic / in life observation / body weight / body weight + systemic / in life observation / body weight / body weight gain.
Data set [3] relates to rat. Particulars: Multigenerational reproductive toxicity study, wistar, Oral, Feed, dose end: 2 generation.
Data set [4] concerns dog. The following applies: Chronic toxicity, beagle, Oral, Feed, dose end: 52 week, group: systemic.
For data set [5], the system named is rat. The following applies: Prenatal developmental toxicity study, sprague dawley, Oral, Gavage/Intubation, dose end: 15 GD.
Data set [6] relates to dog. Particulars: Subchronic oral toxicity in nonrodent, beagle, Feed, dose end: 13 week, group: systemic.
Data set [7] deals with rabbit. The following applies: Prenatal developmental toxicity study, new zealand white, Oral, Gavage/Intubation, dose end: 19 GD.
Data set [8] concerns mouse. Particulars: Carcinogenicity; cd1; Oral; [Not Specified]; group: systemic; systemic / in life observation / body weight / body weight gain.
Data set [9] deals with rat. The following applies: Sub-acute dermal toxicity, sprague dawley, Topical, dose end: 21 day, group: systemic.
Data set [10] relates to dog. The following applies: Subchronic oral toxicity in nonrodent, beagle, Capsule, dose end: 96 day, group: systemic, systemic / in life observation / body weight / body weight gain + systemic / in life observation / clinical signs / emaciation + systemic / ….
The test system of data set [11] is dog. Particulars: Chronic toxicity; beagle; Oral; Feed; dose end: 104 week; group: systemic; systemic / clinical chemistry / alanine aminotransferase (alt/sgpt) / alanine aminotransferase (alt/sgpt) + systemic / clinical chemistry / ….
For data set [12], the system named is rat. The following applies: Subchronic oral toxicity in rodents, sprague dawley, Feed, dose end: 90 day, group: systemic, systemic / clinical chemistry / albumin / albumin + systemic / in life observation / body weight / body weight gain + systemic / organ ….
In data set [13] the test system is mouse. Particulars: Carcinogenicity, cd1, Oral, Feed, dose end: 80 week, group: systemic.
In data set [14] the test system is rat. Particulars: Combined chronic toxicity/carcinogenicity, sprague dawley, Oral, Feed, dose end: 104 week, group: systemic.
Data set [15] has as its system rabbit. Particulars: Prenatal developmental toxicity study, new zealand white, Oral, Gavage/Intubation, dose end: 18 GD.
For data set [16], the system named is rat. The following applies: Prenatal developmental toxicity study, sprague dawley, Oral, Gavage/Intubation, dose end: 19 GD.
Data set [17] deals with dog. The following applies: Subchronic oral toxicity in nonrodent, beagle, Feed, dose end: 118 day, group: systemic.
For data set [18], the system named is rat. The following applies: Subchronic oral toxicity in rodents, wistar, Feed, dose end: 90 day, group: systemic.
Where [19] appears, read: group: offspring, developmental / developmental malformation / general / runts + systemic / in life observation / body weight / offspring (pup) weight + ….
Setting [20] is: group: offspring, developmental / developmental malformation / general / runts + systemic / organ weight / thymus / absolute + systemic / organ weight / ….
The mark [21] stands for this setting: group: reproductive, reproductive / offspring survival early / birth index / live birth index.
[22] abbreviates: systemic / in life observation / food consumption / food consumption.
The mark [23] stands for this setting: group: developmental, developmental / developmental malformation / bone / incomplete ossification + systemic / in life observation / body weight / fetal weight.
The mark [24] stands for this setting: group: maternal, systemic / in life observation / body weight / body weight gain + systemic / in life observation / food consumption / food consumption.
Setting [25] is: systemic / pathology microscopic / bone marrow / hyperplasia + systemic / pathology microscopic / liver / hematopoietic cell proliferation.
[26] abbreviates: systemic / pathology microscopic / bone marrow / hyperplasia + systemic / pathology microscopic / liver / hematopoietic cell proliferation….
The mark [27] stands for this setting: group: developmental, developmental / developmental malformation / bone / supernumerary + developmental / developmental malformation / bone / extra ossification ….
[28] abbreviates: group: maternal, systemic / in life observation / body weight / body weight gain + systemic / in life observation / clinical signs / abnormal feces.
[29] abbreviates: group: maternal, systemic / in life observation / body weight / body weight gain + systemic / in life observation / clinical signs / abnormal feces + ….
[30] abbreviates: systemic / in life observation / body weight / body weight gain.
[31] abbreviates: systemic / in life observation / clinical signs / erythema.
Where [32] appears, read: systemic / organ weight / liver / absolute.
The mark [33] stands for this setting: systemic / organ weight / liver / absolute + systemic / organ weight / liver / relative to body weight.
[34] abbreviates: systemic / pathology microscopic / testes / adenoma + systemic / in life observation / body weight / body weight + systemic / in life ….
The mark [35] stands for this setting: group: developmental, developmental / developmental malformation / bone / incomplete ossification.
Where [36] appears, read: group: maternal, reproductive / reproductive performance / postimplantation loss / postimplantation loss + reproductive / reproductive performance / ….
[37] abbreviates: group: developmental, developmental / developmental malformation / bone / bent + developmental / developmental malformation / bone / full supernumerary + ….
The mark [38] stands for this setting: group: maternal, reproductive / reproductive performance / resorptions / resorptions + systemic / in life observation / clinical signs / abnormal movements….
Where [39] appears, read: systemic / clinical chemistry / creatinine / creatinine + systemic / clinical chemistry / urea nitrogen / urea nitrogen.
Setting [40] is: systemic / clinical chemistry / creatinine / creatinine + systemic / clinical chemistry / urea nitrogen / urea nitrogen + systemic / ….
Where [41] appears, read: systemic / clinical chemistry / alanine aminotransferase (alt/sgpt) / alanine aminotransferase (alt/sgpt) + systemic / clinical chemistry / ….

One may read the LOAEL as the lowest tested level that showed an adverse finding. As a reminder, the NOAEL is the highest tested level that showed no adverse finding. Turning to `C/C(=N\NC(=O)Nc1cc(F)cc(F)c1)c1ncccc1C(=O)O` [Diflufenzopyr], the LEL is 725 mg/kg/day in the data set on rat [1]; 69 mg/kg/day in the data set with rat [2]; 552 mg/kg/day in the data set with rat [3] (setting [19]); 552 mg/kg/day in the data set on rat [3] (setting [21]); 26 mg/kg/day in the data set with dog [4] (setting [22]); 1000 mg/kg/day in the data set on rat [5] (setting [23]). For the same compound, the LEL with rat [5] (setting [24]) turned out to be 1000 mg/kg/day; in the data set on dog [6] (setting [25]), 403 mg/kg/day; with rabbit [7] (setting [27]) it was 300 mg/kg/day; in the data set on rabbit [7] (setting [28]), 100 mg/kg/day; with mouse [8], 1000 mg/kg/day. Further, the lowest-observed-adverse-effect level (LOAEL) is 725 mg/kg/day with rat [1]; more than 518 mg/kg/day in the data set with rat [2]; 552 mg/kg/day in the data set with rat [3] (setting [19]); 552 mg/kg/day in the data set on rat [3] (setting [21]); 299 mg/kg/day with dog [4] (systemic / hematology / reticulocyte / reticulocyte + systemic / pathology microscopic / bone marrow / hyperplasia); 1000 mg/kg/day with rat [5] (setting [23]). In addition, the LOAEL in the data set on rat [5] (setting [24]) is 1000 mg/kg/day; in the data set on dog [6] (setting [25]), 403 mg/kg/day; with rabbit [7] (group: developmental, developmental / developmental malformation / bone / supernumerary), 300 mg/kg/day; with rabbit [7] (setting [28]), 100 mg/kg/day; with mouse [8] it was more than 1000 mg/kg/day. Also, the NEL in the data set with rat [1] was 352 mg/kg/day; in the data set with rat [2], 22 mg/kg/day; in the data set with rat [3] (setting [20]), 126 mg/kg/day; in the data set on rat [3] (setting [21]) it was 126 mg/kg/day; in the data set on dog [4] (setting [22]) it was less than 26 mg/kg/day; in the data set on rat [5] (setting [23]), 300 mg/kg/day. For the same compound, the NEL in the data set with rat [5] (setting [24]) turned out to be 300 mg/kg/day; with dog [6] (setting [26]) it was 58 mg/kg/day; with rabbit [7] (setting [27]) it was 100 mg/kg/day; in the data set with rabbit [7] (setting [29]) it was 30 mg/kg/day; in the data set with mouse [8] it was 500 mg/kg/day. Moreover, the no-observed-adverse-effect level (NOAEL) with rat [1] was 352 mg/kg/day; in the data set with rat [2], not below 518 mg/kg/day; in the data set with rat [3] (setting [20]), 126 mg/kg/day; with rat [3] (setting [21]), 126 mg/kg/day; with dog [4] (systemic / hematology / reticulocyte / reticulocyte + systemic / pathology microscopic / bone marrow / hyperplasia + systemic / hematology…) it was 26 mg/kg/day; in the data set on rat [5] (setting [23]), 300 mg/kg/day. For the same compound, the no observed adverse effect level (NOAEL) is 300 mg/kg/day in the data set on rat [5] (setting [24]); 58 mg/kg/day in the data set with dog [6] (setting [26]); 100 mg/kg/day in the data set on rabbit [7] (setting [27]); 30 mg/kg/day in the data set with rabbit [7] (setting [29]); not below 1000 mg/kg/day in the data set on mouse [8].

For `CCCCCCCCCCCCN=C(N)N` [Dodecylguanidine], the lowest-observed-adverse-effect level (LOAEL) in the data set with rat [9] (setting [30]) came to 50 mg/kg/day; with dog [10], 100 mg/kg/day. The NOAEL in the data set with rat [9] (systemic / in life observation / body weight / body weight gain + systemic / in life observation / clinical signs / desquamation + systemic…) and in the data set with dog [10] was 25 mg/kg/day in each case. For the same compound, the LEL in the data set with rat [9] (setting [31]) is 12.5 mg/kg/day; with dog [10], 100 mg/kg/day. The NEL is less than 12.5 mg/kg/day in the data set on rat [9] (setting [31]) and 25 mg/kg/day in the data set on dog [10].

With `CCOC1Oc2ccc(OS(C)(=O)=O)cc2C1(C)C` (configuration not stated) [Ethofumesate], the LEL worked out at 619 mg/kg/day in the data set with dog [11]; 1900 mg/kg/day in the data set on rat [12]; 204 mg/kg/day in the data set with mouse [13] (setting [32]); 97 mg/kg/day in the data set on rat [14] (setting [34]); 300 mg/kg/day with rabbit [15] (setting [35]); 300 mg/kg/day in the data set on rabbit [15] (setting [36]). For the same compound, the LOAEL in the data set on dog [11] was 619 mg/kg/day; in the data set on rat [12], 1900 mg/kg/day; with mouse [13] (setting [33]), more than 2140 mg/kg/day; in the data set on rat [14] (setting [30]) it was 469 mg/kg/day; in the data set with rabbit [15] (setting [35]), 300 mg/kg/day; in the data set with rabbit [15] (setting [36]), 300 mg/kg/day. Further, the NEL was 109 mg/kg/day in the data set with dog [11]; 190 mg/kg/day with rat [12]; less than 204 mg/kg/day in the data set on mouse [13] (setting [32]); less than 97 mg/kg/day in the data set on rat [14] (setting [34]); 30 mg/kg/day in the data set with rabbit [15] (setting [35]); 30 mg/kg/day in the data set on rabbit [15] (setting [36]). Further, the NOAEL in the data set with dog [11] is 109 mg/kg/day; in the data set on rat [12], 190 mg/kg/day; with mouse [13] (setting [33]) it was not below 2140 mg/kg/day; in the data set with rat [14] (systemic / in life observation / body weight / body weight gain + systemic / clinical chemistry / alkaline phosphatase (alp/alk) / alkaline …) it was 127 mg/kg/day; in the data set with rabbit [15] (setting [35]) it was 30 mg/kg/day; with rabbit [15] (setting [36]), 30 mg/kg/day.

With `CNC.Cc1cc(Cl)ccc1OCC(=O)O` [MCPA-dimethylammonium], the LEL in the data set with rat [16] (setting [37]) was 185 mg/kg/day; with rat [16] (setting [38]), 185 mg/kg/day; in the data set on dog [17] (setting [39]), 2.4 mg/kg/day; in the data set with rat [18] (setting [33]) it was 4 mg/kg/day. The LOAEL in the data set with rat [16] (setting [37]) amounted to 185 mg/kg/day; with rat [16] (setting [38]), 185 mg/kg/day; in the data set on dog [17] (setting [39]) it was 2.4 mg/kg/day; in the data set on rat [18] (setting [41]), 208 mg/kg/day. The NEL in the data set with rat [16] (setting [37]) was 62 mg/kg/day; with rat [16] (setting [38]) it was 62 mg/kg/day; with dog [17] (setting [40]) it was 0.6 mg/kg/day; in the data set on rat [18] (setting [33]) it was less than 4 mg/kg/day. Further, the NOAEL in the data set on rat [16] (setting [37]) amounted to 62 mg/kg/day; in the data set with rat [16] (setting [38]), 62 mg/kg/day; in the data set on dog [17] (setting [40]), 0.6 mg/kg/day; in the data set on rat [18] (setting [41]) it was 42 mg/kg/day.

(Values after EPA's ToxRefDB 2.)
